# BindingDB's records for doi:10.1111/j.1471-4159.1989.tb07357.x (Albany Medical College, 1989)
# Legend:
# [1] = target: 5-hydroxytryptamine receptor 1E (Homo sapiens, UniProt P28566)
# [2] = target: 5-hydroxytryptamine 1D receptor (Bos taurus, UniProt Q8MI13)
# Sequence of 5-hydroxytryptamine 1D receptor (Q8MI13 whole entry): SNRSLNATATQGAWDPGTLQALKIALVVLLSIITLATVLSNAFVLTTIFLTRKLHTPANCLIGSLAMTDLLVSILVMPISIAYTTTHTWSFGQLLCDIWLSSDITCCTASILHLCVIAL
# Sequence of 5-hydroxytryptamine receptor 1E (P28566 whole entry): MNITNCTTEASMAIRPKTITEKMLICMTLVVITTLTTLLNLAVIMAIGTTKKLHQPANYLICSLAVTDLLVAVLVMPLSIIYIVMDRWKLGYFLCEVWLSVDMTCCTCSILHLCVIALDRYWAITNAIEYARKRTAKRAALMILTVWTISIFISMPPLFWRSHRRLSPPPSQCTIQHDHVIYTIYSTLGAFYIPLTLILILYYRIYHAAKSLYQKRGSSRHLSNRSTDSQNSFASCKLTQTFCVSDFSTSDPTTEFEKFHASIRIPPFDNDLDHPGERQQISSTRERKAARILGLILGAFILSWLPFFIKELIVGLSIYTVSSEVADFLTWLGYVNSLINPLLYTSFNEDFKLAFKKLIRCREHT
SMILES,Ki [1],Ki [2]
CCCN(CCC)C1CCc2cccc(O)c2C1 (stereo not given),826 nM,200 nM
CN1C2CCC1CC(OC(=O)c1c[nH]c3ccccc13)C2 (stereo not given),> 10000 nM,> 10000 nM
CC[C@@H](CO)NC(=O)[C@@H]1C=C2c3cccc4c3c(cn4C)C[C@H]2N(C)C1,59 nM,8.8 nM
"COc1cc(CC(C)N)c(OC)cc1Br (stereo not drawn) [2-(4-Bromo-2,5-dimethoxy-phenyl)-1-methyl-ethylamine((-)-DOB)]",556 nM,1000 nM
"O=C(c1ccc(F)cc1)C1CCN(CCn2c(=O)[nH]c3ccccc3c2=O)CC1 [3-(2-{4-[(4-fluorophenyl)carbonyl]piperidin-1-yl}ethyl)-1,2,3,4-tetrahydroquinazoline-2,4-dione]",> 10000 nM,3200 nM
"CN1C[C@H](C(=O)N[C@]2(C)O[C@@]3(O)[C@@H]4CCCN4C(=O)[C@H](Cc4ccccc4)N3C2=O)C=C2c3cccc4[nH]cc(c34)C[C@H]21 [12'-hydroxy-2'-methyl-5'alpha-(phenylmethyl)ergotaman-3',6',18-trione]",155 nM,
FC(F)(F)c1cccc(N2CCNCC2)c1 [TFMPP],570 nM,150 nM
NCCc1c[nH]c2ccc(O)cc12 [[3H]-5-HT],,1.9 nM
NCCc1c[nH]c2ccc(C(N)=O)cc12 [[3H]-5-carboxamidotryptamine],910 nM,
